# Read-outs that look alike come from different tables or passages of the source.
# Target: human TrkA (Homo sapiens (Human), UniProt P04629)
# Experiment: Human TrkA inhibition assay (Test Example 2)
# Format: biochemical
# Summary of the method: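 Recombinant TrkA (1 nmol/L) was preincubated 15 min at room temperature with compound in HEPES/MgCl2/DTT buffer, then reacted with FL-peptide 27 (1.5 μmol/L) and ATP (500 μmol/L) for 120 min at 37 °C. After EDTA stop, substrate phosphorylation was read by microfluidic mobility shift. IC50 came from logistic regression over 3-fold dilution series.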
# [1] = Table 156, human TrkA inhibition, read-out: IC50
# [2] = Table 157, human TrkA inhibition, read-out: IC50
# [3] = human TrkA 1 nmol/L, ATP 500 μmol/L, 120 min at 37° C., read-out: IC50 values (TrkA phosphorylation inhibition)
# [4] = Table 155, human TrkA inhibition, read-out: IC50
# [5] = Table 152, human TrkA inhibition, read-out: IC50_nM
# [6] = Table 153, human TrkA inhibition, read-out: IC50
# [7] = Table 154, human TrkA inhibition, read-out: IC50
# Chain of human TrkA (P04629 440-796): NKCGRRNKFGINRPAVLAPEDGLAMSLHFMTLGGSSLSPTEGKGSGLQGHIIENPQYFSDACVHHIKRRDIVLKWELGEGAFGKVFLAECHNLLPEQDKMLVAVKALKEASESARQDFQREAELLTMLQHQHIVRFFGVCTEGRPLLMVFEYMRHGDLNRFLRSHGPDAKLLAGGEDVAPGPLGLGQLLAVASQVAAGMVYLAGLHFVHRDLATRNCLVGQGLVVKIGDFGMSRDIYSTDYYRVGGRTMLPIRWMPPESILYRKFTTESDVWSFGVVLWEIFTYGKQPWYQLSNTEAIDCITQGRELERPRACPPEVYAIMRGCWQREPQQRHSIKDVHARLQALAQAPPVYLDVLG
smiles,measurement,setting,value
CC(=O)N1CCC(COc2nn(-c3ccccc3)c(NC(=O)N[C@@H]3CN(CC(F)F)O[C@H]3c3ccc(F)c(F)c3)c2C)CC1 (racemic) [Compound I-565],IC50,[1],< 100 nM
CCN1C[C@@H](NC(=O)Nc2c(C)c(OCCCC(N)=O)nn2-c2ccccc2)[C@H](c2ccc(F)c(F)c2)O1 (racemic) [Compound I-663],IC50,[2],< 100 nM
COCCN1C[C@@H](NC(=O)Nc2c(C)c(N3CCN(C)C(=O)C3)nn2-c2ccccc2)[C@H](c2ccc(F)c(F)c2)O1 [Compound I-344],IC50,[3],0.97 nM
COCCN1C[C@@H](NC(=O)Nc2c(C)c(-c3cnc(N4CCN(CC#N)CC4)nc3)nn2-c2ccccc2)[C@H](c2cc(F)nc(F)c2)O1 (racemic) [Compound I-419],IC50,[4],< 100 nM
COCCC1C[C@@H](NC(=O)Nc2c(C)c(-c3ccc(=O)[nH]c3)nn2-c2ccccc2)[C@H](c2ccccc2)O1 (some centres unmarked) [Compound I-18],IC50,[5],< 100 nM
CCOc1nn(-c2ccccc2)c(NC(=O)N[C@@H]2CN(CC)O[C@H]2c2ccc(F)cc2)c1C (racemic) [Compound I-541],IC50,[1],< 100 nM
COCCN1C[C@@H](NC(=O)Nc2c(C)c(OCc3ccncc3)nn2-c2ccccc2)[C@H](c2ccnc(F)c2)O1 (racemic) [Compound I-456],IC50,[4],< 100 nM
COCCN1C[C@@H](NC(=O)Nc2c(C)c(C(=O)NCC(C)(C)O)nn2-c2ccccc2)[C@H](c2ccnc(F)c2)O1 (racemic) [Compound I-385],IC50,[4],< 100 nM
COCCN1C[C@@H](NC(=O)Nc2c(C)c(-c3cnc(COC)nc3)nn2-c2ccccc2)[C@H](c2cnc(F)c(F)c2)O1 [Compound I-512],IC50,[4],< 100 nM
COCCN1C[C@@H](NC(=O)Nc2c(C)c(-c3ccc4nccn4c3)nn2-c2ccccc2)[C@H](c2ccc(F)c(F)c2)O1 [Compound I-460],IC50,[4],< 100 nM
COCCN1C[C@@H](NC(=O)Nc2c(C)c(-c3ccn(C)c(=O)c3)nn2-c2ccccc2)[C@H](c2ccc(F)c(F)c2)O1 [Compound I-497],IC50,[4],< 100 nM
COCCN1C[C@@H](NC(=O)Nc2c(C)c(-c3cnc(OC)c(C(N)=O)c3)nn2-c2ccccc2)[C@H](c2cnc(OC)c(F)c2)O1 (racemic) [Compound I-102],IC50,[6],< 100 nM
COCCN1C[C@@H](NC(=O)Nc2c(C)c(-c3cnc(N4CC[C@@H](OC)C4)nc3)nn2-c2ccccc2)[C@H](c2ccnc(F)c2)O1 [Compound I-585],IC50,[2],< 100 nM
CCN1C[C@@H](NC(=O)Nc2c(C)c(OCCCC(=O)N(C)C)nn2-c2ccccc2)[C@H](c2ccc(F)c(F)c2)O1 (racemic) [Compound I-664],IC50,[2],< 100 nM
COCCN1C[C@@H](NC(=O)Nc2c(C)c(-c3cnc(OC)nc3)nn2-c2ccccc2)[C@H](c2cnc(F)c(F)c2)O1 [Compound I-211],IC50,[3],1.5 nM
COCCN1C[C@@H](NC(=O)Nc2c(C)c(-c3cnc(OC4CCN(C)CC4)nc3)nn2-c2ccccc2)[C@H](c2cc(F)nc(F)c2)O1 (racemic) [Compound I-418],IC50,[4],< 100 nM
CCCN1C[C@@H](NC(=O)Nc2c(C)c(-c3cnc(OC)nc3)nn2-c2ccccc2)[C@H](c2ccc(F)c(F)c2)O1 (racemic) [Compound I-676],IC50,[2],< 100 nM
COCCN1C[C@@H](NC(=O)Nc2c(C)c(-c3cnc(CO)nc3)nn2-c2ccccc2)[C@H](c2ccc(F)c(F)c2)O1 (racemic) [Compound I-34],IC50,[5],< 100 nM
COCCN1C[C@@H](NC(=O)Nc2c(C)c(-c3ccc(N4CCN(C)CC4)nc3)nn2-c2ccccc2)[C@H](c2ccnc(F)c2)O1 (racemic) [Compound I-392],IC50,[3],6.8 nM
COCCN1C[C@@H](NC(=O)Nc2c(C)c(C3=CCNCC3)nn2-c2ccccc2)[C@H](c2cnc(F)c(F)c2)O1 (racemic) [Compound I-48],IC50,[6],< 100 nM
CCN1C[C@@H](NC(=O)Nc2c(C)c(OC3CCN(C)CC3)nn2-c2ccccc2)[C@H](c2ccc(F)c(F)c2)O1 (racemic) [Compound I-631],IC50,[2],< 100 nM
COCCN1C[C@@H](NC(=O)Nc2c(C)c(-c3cnc(N4C[C@H]5C[C@@H](C4)O5)nc3)nn2-c2ccccc2)[C@H](c2ccnc(F)c2)O1 (racemic) [Compound I-487],IC50,[4],< 100 nM
COCCN1C[C@@H](NC(=O)Nc2c(C)c(-c3cnc(Cl)nc3)nn2-c2ccccc2)[C@H](c2ccnc(F)c2)O1 (racemic) [Compound I-249],IC50,[7],< 100 nM
COCCC1C[C@@H](NC(=O)Nc2c(C)c(-c3ccc(C(=O)O)cc3)nn2-c2ccccc2)[C@H](c2ccccc2)O1 (some centres unmarked) [Compound I-15],IC50,[5],< 100 nM
COCCN1C[C@@H](NC(=O)Nc2c(C)c(-c3cnc(N4CCN(C)C[C@H]4C)nc3)nn2-c2ccccc2)[C@H](c2ccnc(F)c2)O1 [Compound I-594],IC50,[2],< 100 nM
CCN1C[C@@H](NC(=O)Nc2c(C)c(-c3cnc(OC)c(C(=O)NC)c3)nn2-c2ccccc2)[C@H](c2ccc(F)cc2)O1 (racemic) [Compound I-570],IC50,[1],< 100 nM
CCN1C[C@@H](NC(=O)Nc2c(C)c(-c3ccc4nccn4c3)nn2-c2ccccc2)[C@H](c2ccc(F)c(F)c2)O1 (racemic) [Compound I-624],IC50,[2],< 100 nM
COCCN1C[C@@H](NC(=O)Nc2c(C)c(-c3cnc4c(c3)c(CO)nn4C)nn2-c2ccccc2)[C@H](c2cnc(F)c(F)c2)O1 [Compound I-128],IC50,[6],< 100 nM
CNC(=O)Cn1cnc2cc(-c3nn(-c4ccccc4)c(NC(=O)N[C@@H]4CN(CCOC)O[C@H]4c4ccnc(F)c4)c3C)cnc21 (racemic) [Compound I-401],IC50,[4],< 100 nM
COCCN1C[C@@H](NC(=O)Nc2c(C)c(-c3cnc(N4CC(O)C4)nc3)nn2-c2ccccc2)[C@H](c2ccnc(F)c2)O1 (racemic) [Compound I-144],IC50,[6],< 100 nM
COCCN1C[C@@H](NC(=O)Nc2c(C)c(-c3cc(COC(C)=O)c(=O)n(C)c3)nn2-c2ccccc2)[C@H](c2ccc(F)c(F)c2)O1 (racemic) [Compound I-124],IC50,[6],< 100 nM
COCC[C@@H]1C[C@@H](NC(=O)Nc2c(C)c(-c3cnc4c(c3)ncn4C)nn2-c2ccccc2)[C@H](c2ccnc(F)c2)O1 [Compound I-276],IC50,[7],< 100 nM
COCCN1C[C@@H](NC(=O)Nc2c(C)c(-c3cnc4c(c3)ncn4C)nn2-c2ccccc2)[C@H](c2ccc(F)c(F)c2)O1 (racemic) [Compound I-72],IC50,[6],< 100 nM
COCCN1C[C@@H](NC(=O)Nc2c(C)c(-c3ccn(C)c(=O)c3)nn2-c2ccccc2)[C@H](c2ccnc(F)c2)O1 (racemic) [Compound I-495],IC50,[4],< 100 nM
COCCN1C[C@@H](NC(=O)Nc2c(C)c(-c3cnc(C)nc3)nn2-c2ccccc2)[C@H](c2ccc(F)c(F)c2)O1 (racemic) [Compound I-26],IC50,[5],< 100 nM
CNC(=O)c1ncc(-c2nn(-c3ccccc3)c(NC(=O)N[C@@H]3CN(CCOC)O[C@H]3c3ccc(F)c(F)c3)c2C)cc1F [Compound I-314],IC50,[7],< 100 nM
COCCN1C[C@@H](NC(=O)Nc2c(C)c(-c3cnc(C)nc3)nn2-c2ccccc2)[C@H](c2cccc(F)c2)O1 (racemic) [Compound I-140],IC50,[6],< 100 nM
COCC[C@@H]1C[C@@H](NC(=O)Nc2c(C)c(C3=CCN(C(=O)CO)CC3)nn2-c2ccccc2)[C@H](c2ccc(F)c(F)c2)O1 (racemic) [Compound I-56],IC50,[6],< 100 nM
CCN1C[C@@H](NC(=O)Nc2c(C)c(OCCC3CCNCC3)nn2-c2ccccc2)[C@H](c2ccc(F)c(F)c2)O1 (racemic) [Compound I-671],IC50,[2],< 100 nM
CCN1C[C@@H](NC(=O)Nc2c(C)c(OCC3CCN(C(C)=O)CC3)nn2-c2ccccc2)[C@H](c2ccc(F)cc2)O1 (racemic) [Compound I-566],IC50,[1],< 100 nM
COCCN1C[C@@H](NC(=O)Nc2c(C)c(-c3cnc(N4CC5(COC5)C4)nc3)nn2-c2ccccc2)[C@H](c2cnc(F)c(F)c2)O1 [Compound I-430],IC50,[4],< 100 nM
COCCN1C[C@@H](NC(=O)Nc2c(C)c(-c3cnc(N4CC(OC)C4)nc3)nn2-c2ccccc2)[C@H](c2ccnc(F)c2)O1 [Compound I-555],IC50,[3],0.93 nM
CNC(=O)c1ncc(-c2nn(-c3ccccc3)c(NC(=O)N[C@@H]3CN(CCOC)O[C@H]3c3ccc(F)c(F)c3)c2C)cc1NC [Compound I-315],IC50,[3],0.76 nM
COCCN1C[C@@H](NC(=O)Nc2c(C)c(C3=CCN(C(C)=O)CC3)nn2-c2ccccc2)[C@H](c2ccc(F)c(F)c2)O1 [Compound I-39],IC50,[3],0.48 nM
COCCN1C[C@@H](NC(=O)Nc2c(C)c(OCCCN(C)C)nn2-c2ccccc2)[C@H](c2ccc(F)c(F)c2)O1 [Compound I-552],IC50,[3],1.7 nM
CCN1C[C@@H](NC(=O)Nc2c(C)c(-c3cnn(C)c3)nn2-c2ccccc2)[C@H](c2ccccc2)O1 (racemic) [Compound I-3],IC50,[3],120 nM
COCCN1C[C@@H](NC(=O)Nc2c(C)c(-c3cnc(C(=O)NC4CC4)c(OC)c3)nn2-c2ccccc2)[C@H](c2ccnc(F)c2)O1 (racemic) [Compound I-339],IC50,[4],< 100 nM
COCC[C@H]1C[C@H](NC(=O)Nc2c(C)c(C3=CCN(C(=O)CO)CC3)nn2-c2ccccc2)[C@@H](c2ccc(F)c(F)c2)O1 [Compound I-58],IC50,[6],100 to 1000 nM
COCCN1C[C@@H](NC(=O)Nc2c(C)c(-c3cnc4c(c3)[nH]c(=O)n4C)nn2-c2ccccc2)[C@H](c2ccnc(F)c2)O1 (racemic) [Compound I-208],IC50,[7],< 100 nM
CCCCN1C[C@@H](NC(=O)Nc2c(C)c(-c3cnc(OC)nc3)nn2-c2ccccc2)[C@H](c2ccc(F)c(F)c2)O1 (racemic) [Compound I-677],IC50,[2],< 100 nM
CCCN1C[C@@H](NC(=O)Nc2c(C)c(OCC3CCN(C)CC3)nn2-c2ccccc2)[C@H](c2ccc(F)c(F)c2)O1 (racemic) [Compound I-654],IC50,[2],< 100 nM
COCCN1C[C@@H](NC(=O)Nc2c(C)c(-c3ccc(CO)nc3)nn2-c2ccccc2)[C@H](c2ccc(F)c(F)c2)O1 [Compound I-533],IC50,[1],< 100 nM
COCCN1C[C@@H](NC(=O)Nc2c(C)c(-c3cnc(OC(C)C)nc3)nn2-c2ccccc2)[C@H](c2ccnc(F)c2)O1 (racemic) [Compound I-477],IC50,[4],< 100 nM

# Reference: patent US10640495B2, “Heterocycle derivatives having TrkA inhibitory activity” (Shionogi & Co., Ltd., priority 2015, dated 2020)
